In the supplement of paper PMC10307832:

Assays:
Assay in all cases: relative viability (nuclei count vs DMSO), 5 days (fraction); higher = more cells survive
XMD8-85 + OSI-027 = compound: CN1CCN(CC1)C2=CC(=C(C=C2)NC3=NC=C4C(=N3)N(C5=CC=CC=C5C(=O)N4C)C)OC [XMD8-85] + COc1cccc2cc(-c3nc([C@H]4CC[C@H](C(=O)O)CC4)n4ncnc(N)c34)[nH]c12 [OSI-027] (partner 0.5 µM)
Procedure, shortened: (§1)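 Lung cancer cell lines were pin-tool dosed in 1536-well plates on the day after seeding, with either a lone drug or a fixed anchor-drug dose plus five library-drug doses (not always all listed) in √10 steps. Nuclei were counted on 4× images after 5 days. Relative viability is the ratio of treated-well to vehicle-well nuclei counts, with each value a median of duplicate plates.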

XMD8-85 + Crizotinib = compound: CN1CCN(CC1)C2=CC(=C(C=C2)NC3=NC=C4C(=N3)N(C5=CC=CC=C5C(=O)N4C)C)OC [XMD8-85] + C[C@@H](Oc1cc(-c2cnn(C3CCNCC3)c2)cnc1N)c1c(Cl)ccc(F)c1Cl [Crizotinib] (partner 1 µM)
Procedure, shortened: as §1

XMD8-85 + Decitabine = compound: CN1CCN(CC1)C2=CC(=C(C=C2)NC3=NC=C4C(=N3)N(C5=CC=CC=C5C(=O)N4C)C)OC [XMD8-85] + Nc1ncn([C@H]2C[C@H](O)[C@@H](CO)O2)c(=O)n1 [Decitabine] (partner 2 µM)
Procedure, shortened: as §1

4EGI-1 + OSI-027 = compound: O=C(O)C(Cc1ccccc1[N+](=O)[O-])=NNc1nc(-c2ccc(Cl)c(Cl)c2)cs1 (mixture of isomers) [4EGI-1] + COc1cccc2cc(-c3nc([C@H]4CC[C@H](C(=O)O)CC4)n4ncnc(N)c34)[nH]c12 [OSI-027] (partner 0.5 µM)
Procedure, shortened: as §1

Row | Cell Line | relative viability (XMD8-85 + OSI-027; first compound 0.08 µM) | relative viability (XMD8-85 + OSI-027; first compound 0.253 µM) | relative viability (XMD8-85 + OSI-027; first compound 0.8 µM) | relative viability (XMD8-85 + OSI-027; first compound 2.53 µM) | relative viability (XMD8-85 + OSI-027; first compound 8 µM) | relative viability (XMD8-85 + Crizotinib; first compound 0.08 µM) | relative viability (XMD8-85 + Crizotinib; first compound 0.253 µM) | relative viability (XMD8-85 + Crizotinib; first compound 0.8 µM) | relative viability (XMD8-85 + Crizotinib; first compound 2.53 µM) | relative viability (XMD8-85 + Crizotinib; first compound 8 µM) | relative viability (XMD8-85 + Decitabine; first compound 0.08 µM) | relative viability (XMD8-85 + Decitabine; first compound 0.253 µM) | relative viability (XMD8-85 + Decitabine; first compound 0.8 µM) | relative viability (XMD8-85 + Decitabine; first compound 2.53 µM) | relative viability (XMD8-85 + Decitabine; first compound 8 µM) | relative viability (4EGI-1 + OSI-027; first compound 0.5 µM) | relative viability (4EGI-1 + OSI-027; first compound 1.581 µM) | relative viability (4EGI-1 + OSI-027; first compound 5 µM) | relative viability (4EGI-1 + OSI-027; first compound 15.81 µM) | relative viability (4EGI-1 + OSI-027; first compound 50 µM)
1 | NCI-H2087 | 0.612 | 0.586 | 0.582 | 0.686 | 0.552 | 0.821 | 0.857 | 0.994 | 0.994 | 0.674 | 0.311 | 0.262 | 0.297 | 0.32 | 0.195 | 0.693 | 0.523 | 0.656 | 0.438 | 0.203
2 | NCI-H2126 | 0.603 | 0.696 | 0.739 | 0.855 | 0.624 | 1.02 | 0.974 | 1.02 | 1.06 | 1 | 0.647 | 0.578 | 0.562 | 0.57 | 0.562 | 0.721 | 0.697 | 0.778 | 0.572 | 0.511
3 | NCI-H2170 | 0.676 | 0.685 | 0.739 | – | 0.613 | 1.18 | 1.01 | 1.27 | 1.28 | 0.966 | 0.478 | 0.478 | 0.498 | 0.497 | 0.484 | 0.785 | 0.63 | 0.713 | 0.558 | 0.391
4 | NCI-H2347 | 0.447 | 0.382 | 0.421 | 0.578 | 0.454 | 0.696 | 0.785 | 0.749 | 0.609 | 0.614 | 0.599 | 0.619 | 0.583 | – | 0.531 | 0.404 | – | 0.475 | 0.389 | 0.405
5 | NCI-H2405 | 0.6 | 0.645 | 0.604 | 0.598 | 0.631 | 0.829 | 0.815 | 0.769 | 0.85 | 0.665 | 0.672 | 0.765 | 0.705 | 0.854 | 0.75 | 0.679 | 0.557 | 0.677 | 0.698 | 0.693
6 | NCI-H3122 | 0.867 | 1.02 | 1.34 | 1.08 | 0.532 | 0.261 | 0.258 | 0.274 | 0.329 | 0.331 | 0.401 | 0.439 | 0.481 | 0.507 | 0.543 | 1.27 | – | 1.04 | 0.862 | 0.235
7 | PC-3 [JPC-3] | 0.769 | 0.754 | 0.698 | 0.814 | 0.71 | 0.827 | 1.12 | 1.01 | 1.09 | 0.986 | 0.93 | – | 0.8 | 1.06 | 0.745 | 0.778 | 0.73 | 0.746 | – | 0.498
8 | PC-14 | 0.835 | 0.971 | 0.776 | – | 0.373 | 0.867 | 0.874 | 0.834 | 0.972 | 0.722 | 0.275 | 0.276 | 0.223 | 0.162 | 0.133 | 1.21 | – | 1.15 | 0.14 | 0.0614
9 | RERF-LC-KJ | 0.684 | 0.504 | 0.645 | 0.577 | 0.461 | 0.881 | 0.751 | 0.807 | 0.817 | 0.658 | – | 0.703 | 0.811 | 0.767 | 0.496 | 0.665 | – | 0.529 | 0.413 | 0.296
10 | SK-LU-1 | 0.287 | 0.383 | – | 0.365 | 0.297 | 0.568 | 0.892 | 1.07 | 1.12 | 0.653 | 0.607 | 0.58 | 0.61 | 0.705 | 0.549 | 0.381 | 0.36 | 0.356 | 0.34 | 0.174
11 | SK-MES-1 | 0.533 | 0.657 | 0.608 | 0.525 | 0.457 | 0.964 | 1.03 | 0.94 | 0.923 | 0.61 | 0.348 | 0.353 | 0.39 | 0.39 | 0.3 | 0.704 | 0.523 | 0.611 | 0.548 | 0.199
12 | SW 1573 | 0.566 | 0.61 | 0.669 | 0.607 | 0.327 | 0.817 | 0.705 | 0.822 | 0.867 | 0.456 | 0.465 | 0.529 | – | 0.522 | 0.338 | 0.884 | 0.431 | 0.703 | 0.284 | 0.11
13 | UMC-11 | 0.457 | 0.461 | 0.521 | 0.436 | 0.371 | 0.656 | 0.497 | 0.638 | 0.459 | 0.237 | 0.568 | 0.618 | 0.594 | 0.545 | 0.544 | 0.465 | 0.526 | 0.507 | 0.484 | 0.284
